Measurements from US20220362174A1, “Use of R-enantiomer Beta2-agonists for prevent and treatment of pulmonary inflammation and inflammatory remodeling for reduced adverse effects” (priority 2019, published 2022).

Assays:
Format in all cases: cell-based
iNOS = iNOS mRNA and protein levels
Protocol: (§1) In addition, the concentration of NO in the culture supernatant was measured by assaying the concentrations of nitrite (a stable NO breakdown product) using the Griess assay. […] To investigate (R)-salbutamol role on the level of iNOS, the mRNA and protein levels of iNOS were determined.

[1] = tested on: LPS-induced RAW264.7 cells; assay: M1/M2 macrophage polarization by flow cytometry; details: pretreated with (R)-salbutamol following incubation with ICI-118551, LPS
Protocol: (§2) Macrophages were treated without or with (R)/(S)-salbutamol for 1 h prior to LPS stimulation and subsequently incubated for 12 h. […] The fluorescence of the oxidized product (2′,7′-dichlorofluorescein, DCF) was assessed using an LSM710 Laser Scanning Confocal Microscope (Carl Zeiss, Jena, Germany). The concentration of NO in the culture supernatant was measured by assaying the concentrations of nitrite (a stable NO breakdown product) using the Griess assay (Beyotime, Shanghai, China), according to the manufacturer's instructions. The intracellular NO level was detected using the NO-sensitive fluorescence probe DAF-FM DA (Sigma, St. Louis, Mo., USA) (24). Cells were labeled with DAF-FM DA (10 μM) at 37° C. for 30 min and were gently washed three times with PBS. Fluorescence was detected using a LSM710 Laser Scanning Confocal Microscope (Scale bars, 100 μm) (Carl Zeiss, Jena, Germany).
Macrophages M1 (F4/80+/CD11c+/CD206−) and M2 (F4/80+/CD11c−/CD206+) polarization were analyzed using flow cytometry.

[2] = tested on: LPS-induced RAW264.7 cells; assay: Seahorse analysis of OCR and ECAR
Protocol: as §2
Macrophage activation elicited different metabolic profiles. LPS-induced macrophages adopted glycolytic metabolic profiles. This invention disclosed a β2 adrenergic receptor mediated Warburg metabolism (aerobic glycolysis) of in LPS treated macrophages. The OCR and ECAR were measured using an extracellular flux analyzer. […] ECAR is a measurement extracellular acidification rate, an indication of cellular glycolytic rate.

[3] = tested on: LPS-induced RAW264.7 cells; assay: mRNA expression of TNF-α, IL-1β and MCP-1 by quantitative real-time PCR; details: ICI-118551-treated cells compared to the control group
Protocol: as §2
To examine the mRNA expression of TNF-α, IL-1β and MCP-1, quantitative real-time PCR was performed. Consistent with the cytokine expression study, the mRNA expression of TNF-α was increased by 2.26-fold in the LPS-induced group compared to the control group (FIG. 8D). The mRNA expression of IL-1β and MCP-1 increased by 12.74-fold (FIG. 8E) and 3.1-fold, respectively, in the LPS-induced group compared to the control group (FIG. 8F).

[4] = tested on: LPS-induced RAW264.7 cells; assay: NO production (DAF-FM DA probe, Griess assay); details: treatment with ICI-118551 in (R)-salbutamol/LPS cells
Protocol: as §2, §1

[5] = tested on: LPS-induced macrophages RAW264.7 cells; assay: Ratio of GSH/GSSG
From the text: The ratio of GSH to GSSG is a marker of oxidative stress.

Cc1ccc(OCC(O)C(C)NC(C)C)c2c1CCC2 (centres unmarked) [ICI-118551, reference compound]
effects of (R)-salbutamol on iNOS when adding ICI-118551 (iNOS): blocked
percentage of M1 macrophages [1]: 55.8%
metabolism shift by (R)-salbutamol with ICI-118551 treatment [2]: blocked
mRNA expression of IL-1β, increase [3]: 12.41 fold
mRNA expression of MCP-1, increase [3]: 3.36 fold
mRNA expression of TNF-α, increase [3]: 2.28 fold
NO levels [4]: increased NO levels
effect of (R)-salbutamol on GSH/GSSG with ICI-118551 [5]: blocked
